Columns and labels:
[1] = Volume of distribution at steady state in Sprague-Dawley rat at 0.1 mg/kg, iv administered as single dose and measured up to 48 hrs; type: ADME, organism-based; settings: in vivo, read-out: Vdss
[2] = Half life in Sprague-Dawley rat at 0.5 mg/kg, sc administered as single dose and measured up to 48 hrs; type: ADME, organism-based; settings: in vivo
[3] = Stability in rat Kidney S9 fraction assessed as compound remaining at 4 hrs; type: ADME, subcellular; settings: read-out: Stabilty
[4] = Unbound Cmax in Sprague-Dawley rat at 0.5 mg/kg, sc administered as single dose and measured up to 48 hrs; type: ADME, organism-based; settings: in vivo
[5] = molecular target: T1, Apelin receptor (Rattus norvegicus, UniProt Q9JHG3); assay: Agonist activity at rat APJ receptor stably expressed in CHO cell membranes in presence of [35S]GTPgammaS by scintillation proximity assay; type: functional
T1 sequence (Q9JHG3 whole entry): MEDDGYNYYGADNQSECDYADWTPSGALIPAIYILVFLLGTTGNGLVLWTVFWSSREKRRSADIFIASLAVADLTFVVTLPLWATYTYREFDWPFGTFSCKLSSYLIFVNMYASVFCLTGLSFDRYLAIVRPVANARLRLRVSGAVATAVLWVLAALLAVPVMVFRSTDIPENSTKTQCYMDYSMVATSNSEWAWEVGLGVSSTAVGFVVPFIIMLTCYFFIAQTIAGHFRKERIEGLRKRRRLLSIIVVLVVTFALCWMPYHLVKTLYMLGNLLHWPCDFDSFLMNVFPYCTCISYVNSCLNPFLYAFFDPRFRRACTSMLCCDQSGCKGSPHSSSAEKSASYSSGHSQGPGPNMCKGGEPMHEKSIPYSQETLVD

[6] = Plasma protein binding in rat assessed as unbound fraction by LC-MS/MS analysis; type: ADME, cell-free
[7] = Tmax in Sprague-Dawley rat at 0.5 mg/kg, sc administered as single dose and measured up to 48 hrs; type: ADME, organism-based; settings: in vivo
[8] = Stability in rat liver S9 fraction assessed as compound remaining at 4 hrs; type: ADME, subcellular; settings: read-out: Stabilty
[9] = AUC (0 to t) in Sprague-Dawley rat at 0.1 mg/kg, iv administered as single dose and measured up 48 hrs; type: ADME, organism-based; set-up: dose 0.1 mg/kg, time <=48; settings: in vivo
[10] = Bioavailability in Sprague-Dawley rat at 0.5 mg/kg, sc administered as single dose and measured up to 48 hrs; type: ADME, organism-based; settings: in vivo
[11] = AUC (0 to t) in Sprague-Dawley rat at 0.5 mg/kg, sc administered as single dose and measured up to 48 hrs; type: ADME, organism-based; set-up: route subcutaneous, dose 0.5 mg/kg, time <=48; settings: in vivo
[12] = Clearance in Sprague-Dawley rat at 0.1 mg/kg, iv administered as single dose and measured up to 48 hrs; type: ADME, organism-based; settings: in vivo
[13] = Stability in rat plasma assessed as compound remaining at 4 hrs; type: ADME, cell-free; settings: read-out: Stabilty
[14] = Half life in Sprague-Dawley rat at 0.1 mg/kg, iv administered as single dose and measured up to 48 hrs; type: ADME, organism-based; settings: in vivo
[15] = Unbound clearance in Sprague-Dawley rat at 0.1 mg/kg, iv administered as single dose and measured up to 48 hrs; type: ADME, organism-based; settings: in vivo

Row | Compound | Vd [1] [L/kg] | half-life [2] [h] | remaining at 4 h [3] [%] | fCmax [4] [nM] | EC50 [5] [nM] | fraction unbound [6] | Tmax [7] [h] | remaining at 4 h [8] [%] | AUC(0-t) at 48 h [9] [µM·h] | bioavailability [10] [%] | AUC(0-t) at 48 h [11] [µM·h] | clearance [12] [mL/min/kg] | remaining at 4 h [13] [%] | half-life [14] [h] | CL free [15] [mL/min/kg]
1 | CC(=O)N[C@@H](CCCCNC(=N)N)C(=O)N[C@H](CCCNC(=N)N)C(=O)N[C@@H](CCC(N)=O)C(=O)N[C@@H](CCCCNC(=N)N)C(=O)N1CCC[C@H]1C(=O)N[C@H](CCCNC(=N)N)C(=O)N(C)[C@@H](CC(C)C)C(=O)N[C@@H](CO)C(=O)N[C@@H](Cc1c[nH]cn1)C(=O)N[C@@H](CCCCN)C(=O)NCC(=O)N1[C@H](C(=O)N[C@@H](Cc2ccc(I)cc2)C(=O)N2CCC[C@H]2C(=O)N[C@H](Cc2ccc(-c3ccccc3)cc2)C(=O)O)C[C@@H]2CCCC[C@@H]21 | 0.298 |  | 45 |  | 1.95 | 0.179 |  | 41 | 0.073 |  |  | 10.1 | 86 | 0.362 | 56.2
2 | CCCCCC(=O)N[C@@H](CCC(=O)NCCOCCOCC(=O)NCCOCCOCC(=O)N[C@@H](CCCCNC(=N)N)C(=O)N[C@H](CCCNC(=N)N)C(=O)N[C@@H](CCC(N)=O)C(=O)N[C@@H](CCCCNC(=N)N)C(=O)N1CCC[C@H]1C(=O)N[C@H](CCCNC(=N)N)C(=O)N(C)[C@@H](CC(C)C)C(=O)N[C@@H](CO)C(=O)N[C@@H](Cc1c[nH]cn1)C(=O)N[C@@H](CCCCN)C(=O)NCC(=O)N1[C@H](C(=O)N[C@@H](Cc2ccc(I)cc2)C(=O)N2CCC[C@H]2C(=O)N[C@H](Cc2ccc(-c3ccccc3)cc2)C(=O)O)C[C@@H]2CCCC[C@@H]21)C(=O)O | 0.203 | 2.6 |  | 0.37 | 2.31 | 0.0034 | 4 |  | 0.372 | 56 | 1.05 | 1.64 |  | 2.31 | 483
3 | CC(C)C[C@@H](C(=O)N[C@@H](CO)C(=O)N[C@@H](Cc1c[nH]cn1)C(=O)N[C@@H](CCCCN)C(=O)NCC(=O)N1[C@H](C(=O)N[C@@H](Cc2ccc(I)cc2)C(=O)N2CCC[C@H]2C(=O)N[C@H](Cc2ccc(-c3ccccc3)cc2)C(=O)O)C[C@@H]2CCCC[C@@H]21)N(C)C(=O)[C@@H](CCCNC(=N)N)NC(=O)[C@@H]1CCCN1C(=O)[C@H](CCCCNC(=N)N)NC(=O)[C@H](CCC(N)=O)NC(=O)[C@@H](CCCNC(=N)N)NC(=O)[C@H](CCCCNC(=N)N)NC(=O)COCCOCCNC(=O)COCCOCCNC(=O)CC[C@H](NC(=O)CCCCC(=O)O)C(=O)O | 0.139 | 4.1 | 76 | 1.2 | 4.1 | 0.0061 | 4.7 | 15 | 0.682 | 58 | 1.98 | 0.92 | > 90 | 2.32 | 152
4 | CCCCCCCCCCCCC(=O)N[C@@H](CCC(=O)NCCOCCOCC(=O)NCCOCCOCC(=O)N[C@@H](CCCCNC(=N)N)C(=O)N[C@H](CCCNC(=N)N)C(=O)N[C@@H](CCC(N)=O)C(=O)N[C@@H](CCCCNC(=N)N)C(=O)N1CCC[C@H]1C(=O)N[C@H](CCCNC(=N)N)C(=O)N(C)[C@@H](CC(C)C)C(=O)N[C@@H](CO)C(=O)N[C@@H](Cc1c[nH]cn1)C(=O)N[C@@H](CCCCN)C(=O)NCC(=O)N1[C@H](C(=O)N[C@@H](Cc2ccc(I)cc2)C(=O)N2CCC[C@H]2C(=O)N[C@H](Cc2ccc(-c3ccccc3)cc2)C(=O)O)C[C@@H]2CCCC[C@@H]21)C(=O)O | 0.231 | 10.2 | 86 | 0.06 | 6.22 | 0.0022 | 6 | 45 | 0.269 | 33 | 0.349 | 2.18 | > 90 | 3.4 | 1000

Other lines, results leading:

Row | Vd [1] [L/kg] | half-life [2] [h] | remaining at 4 h [3] [%] | fCmax [4] [nM] | EC50 [5] [nM] | fraction unbound [6] | Tmax [7] [h] | remaining at 4 h [8] [%] | AUC(0-t) at 48 h [9] [µM·h] | bioavailability [10] [%] | AUC(0-t) at 48 h [11] [µM·h] | clearance [12] [mL/min/kg] | remaining at 4 h [13] [%] | half-life [14] [h] | CL free [15] [mL/min/kg] | Compound
5 | 0.092 | 10.3 | 83 | 0.27 | 7.42 | 0.0064 | 12 | 68 | 0.465 | 36 | 0.753 | 1.23 | 79 | 2.18 | 200 | CCCCCCCCCCCCCCCCC(=O)N[C@@H](CCC(=O)NCCOCCOCC(=O)NCCOCCOCC(=O)N[C@@H](CCCCNC(=N)N)C(=O)N[C@H](CCCNC(=N)N)C(=O)N[C@@H](CCC(N)=O)C(=O)N[C@@H](CCCCNC(=N)N)C(=O)N1CCC[C@H]1C(=O)N[C@H](CCCNC(=N)N)C(=O)N(C)[C@@H](CC(C)C)C(=O)N[C@@H](CO)C(=O)N[C@@H](Cc1c[nH]cn1)C(=O)N[C@@H](CCCCN)C(=O)NCC(=O)N1[C@H](C(=O)N[C@@H](Cc2ccc(I)cc2)C(=O)N2CCC[C@H]2C(=O)N[C@H](Cc2ccc(-c3ccccc3)cc2)C(=O)O)C[C@@H]2CCCC[C@@H]21)C(=O)O
6 | 0.074 | 6.3 | 84 | 0.07 | 4.39 | 0.0021 | 8 | 66 | 0.426 | 24 | 0.404 | 1.35 | > 90 | 1.84 | 650 | CCCCCCCCCCCCCCC(=O)N[C@@H](CCC(=O)NCCOCCOCC(=O)NCCOCCOCC(=O)N[C@@H](CCCCNC(=N)N)C(=O)N[C@H](CCCNC(=N)N)C(=O)N[C@@H](CCC(N)=O)C(=O)N[C@@H](CCCCNC(=N)N)C(=O)N1CCC[C@H]1C(=O)N[C@H](CCCNC(=N)N)C(=O)N(C)[C@@H](CC(C)C)C(=O)N[C@@H](CO)C(=O)N[C@@H](Cc1c[nH]cn1)C(=O)N[C@@H](CCCCN)C(=O)NCC(=O)N1[C@H](C(=O)N[C@@H](Cc2ccc(I)cc2)C(=O)N2CCC[C@H]2C(=O)N[C@H](Cc2ccc(-c3ccccc3)cc2)C(=O)O)C[C@@H]2CCCC[C@@H]21)C(=O)O
7 | 0.165 | > 24 | 86 | 0.33 | 117 | 0.0013 | 24 | 85 | 4.45 | > 36 | 9.58 | 0.11 | > 90 | 19.7 | 85 | CC(C)C[C@@H](C(=O)N[C@@H](CO)C(=O)N[C@@H](Cc1c[nH]cn1)C(=O)N[C@@H](CCCNC(=N)N)C(=O)NCC(=O)N1[C@H](C(=O)N[C@@H](Cc2ccc(I)cc2)C(=O)N2CCC[C@H]2C(=O)N[C@H](Cc2ccc(-c3ccccc3)cc2)C(=O)O)C[C@@H]2CCCC[C@@H]21)N(C)C(=O)[C@@H](CCCNC(=N)N)NC(=O)[C@@H]1CCCN1C(=O)[C@H](CCCCNC(=N)N)NC(=O)[C@H](CCC(N)=O)NC(=O)[C@@H](CCCNC(=N)N)NC(=O)[C@H](CCCCNC(=N)N)NC(=O)COCCOCCNC(=O)COCCOCCNC(=O)CC[C@H](NC(=O)CCCCCCCCCCCCCCCCC(=O)O)C(=O)O
